In patent US20080009418A1, “Selective Inhibitors” (Alchemia LTD., priority 2004, published 2008):

Assays:
Human neurokinin (NK1) = biological target: T1, Human neurokinin (NK1) (Homo sapiens, UniProt P25103); experiment: Radioligand binding, human neurokinin NK1 membranes, filtration, [125I]-Substance P; details: compound at 10 μM; [125I]-Substance P
T1 construct: purchased Perkin Elmer Biosignal
How it was run: (§1)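 Membranes from cloned human receptors were incubated with compound and radioligand for 1 hour at room temperature. Bound ligand was collected on 0.3% PEI-soaked filters, washed with cold 50 mM Tris-HCl pH 7.4, and counted by scintillation. Percent inhibition was computed against DMSO totals and reference-ligand nonspecific wells.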

Human opioid (ORL1) = biological target: T2, Human opioid (ORL1) (Homo sapiens, UniProt P41146); experiment: Radioligand binding, human opioid ORL1 membranes, FlashPlate, [125I]-Nociceptin; details: compound at 10 μM; [125I]-Nociceptin
T2 construct: purchased Perkin Elmer Biosignal
T2 sequence (P41146 whole entry): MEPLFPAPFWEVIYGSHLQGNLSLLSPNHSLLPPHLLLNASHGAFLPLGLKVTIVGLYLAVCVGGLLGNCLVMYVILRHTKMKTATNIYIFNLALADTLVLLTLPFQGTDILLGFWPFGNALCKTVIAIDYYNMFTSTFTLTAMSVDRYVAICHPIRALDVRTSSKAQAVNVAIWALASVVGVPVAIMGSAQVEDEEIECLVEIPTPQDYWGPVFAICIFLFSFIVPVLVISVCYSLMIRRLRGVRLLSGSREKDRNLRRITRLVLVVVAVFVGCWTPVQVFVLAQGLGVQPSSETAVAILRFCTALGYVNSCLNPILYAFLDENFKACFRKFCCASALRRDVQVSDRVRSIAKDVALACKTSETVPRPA
How it was run: (§2)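 Cloned human receptor membranes were coated onto FlashPlate wells and incubated with radioligand and compound (added from a 0.5 mM DMSO daughter plate) for 1 hour at room temperature in the dark. Scintillation counting gave percent inhibition, with DMSO defining total and reference ligand defining non-specific binding.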

Human Melanocortin (MC3) = biological target: T3, Human Melanocortin (MC3) (Homo sapiens, UniProt P41968); experiment: Radioligand binding, human melanocortin MC3 membranes, FlashPlate, [125I]-NDP-αMSH; details: compound at 10 μM; [125I]-NDP-αMSH
T3 construct: purchased Perkin Elmer Biosignal
T3 sequence (P41968 whole entry): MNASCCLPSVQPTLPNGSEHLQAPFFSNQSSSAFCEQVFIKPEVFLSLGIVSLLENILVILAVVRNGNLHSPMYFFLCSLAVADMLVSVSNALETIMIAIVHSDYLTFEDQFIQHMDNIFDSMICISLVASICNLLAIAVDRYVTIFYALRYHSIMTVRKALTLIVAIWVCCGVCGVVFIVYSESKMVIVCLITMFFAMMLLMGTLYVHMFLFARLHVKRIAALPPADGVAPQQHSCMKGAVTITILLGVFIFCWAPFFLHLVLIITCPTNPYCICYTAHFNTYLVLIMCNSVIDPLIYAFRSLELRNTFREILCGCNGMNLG
How it was run: as §2

Mouse urotensin (mUR2) = biological target: T4, Mouse urotensin (mUR2) (Mus musculus, UniProt Q8VIH9); experiment: Radioligand binding, mouse urotensin mUR2 membranes, FlashPlate, [125I]-Urotensin II; details: compound at 10 μM; [125I]-Urotensin II
T4 construct: purchased Perkin Elmer Biosignal
T4 sequence (Q8VIH9 1-385): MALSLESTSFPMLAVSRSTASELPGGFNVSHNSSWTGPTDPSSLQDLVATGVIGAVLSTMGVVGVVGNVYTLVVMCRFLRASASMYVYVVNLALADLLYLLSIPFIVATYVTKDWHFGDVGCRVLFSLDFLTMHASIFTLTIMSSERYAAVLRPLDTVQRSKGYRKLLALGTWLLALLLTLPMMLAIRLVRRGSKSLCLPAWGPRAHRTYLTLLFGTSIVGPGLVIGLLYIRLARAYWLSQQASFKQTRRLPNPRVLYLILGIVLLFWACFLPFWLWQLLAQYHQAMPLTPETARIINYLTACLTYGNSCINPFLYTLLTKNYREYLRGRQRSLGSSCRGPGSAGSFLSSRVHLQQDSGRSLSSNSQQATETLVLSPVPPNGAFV
How it was run: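 Cloned mouse urotensin (mUR2) receptor membranes from Perkin Elmer Biosignal were immobilized in FlashPlate microplates using a proprietary coating. Each well got 19.5 μl buffer, then 0.5 μl of DMSO, reference ligand, or compound. Adding 5 μl of [125I]-Urotensin II, diluted to 5× final concentration in binding buffer, started binding. Plates were sealed with TopSeal-A and incubated 1 hour at room temperature in the dark. Wells were counted for 30 seconds each on a TopCount after a 60-second delay, and percentage inhibition was calculated.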

Human Melanocortin (MC4) = biological target: T5, Human Melanocortin (MC4) (Homo sapiens, UniProt P32245); experiment: Radioligand binding, human melanocortin MC4 membranes, FlashPlate, [125I]-NDP-αMSH; details: compound at 10 μM; [125I]-NDP-αMSH
T5 construct: purchased Perkin Elmer Biosignal
T5 sequence (P32245 whole entry): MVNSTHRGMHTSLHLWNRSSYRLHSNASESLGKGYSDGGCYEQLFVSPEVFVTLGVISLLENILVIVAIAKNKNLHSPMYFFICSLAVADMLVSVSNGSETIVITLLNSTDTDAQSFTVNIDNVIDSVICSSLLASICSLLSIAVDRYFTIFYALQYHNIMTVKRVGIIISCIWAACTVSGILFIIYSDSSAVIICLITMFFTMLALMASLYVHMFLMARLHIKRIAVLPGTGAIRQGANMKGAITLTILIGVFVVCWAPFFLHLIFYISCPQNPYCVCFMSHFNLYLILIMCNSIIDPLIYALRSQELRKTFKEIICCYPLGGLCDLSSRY
How it was run: as §2

[1] = biological target: T6, Human melanin-concentrating hormone (MCH1) (Homo sapiens, UniProt Q99705); experiment: Radioligand binding, human melanin-concentrating hormone MCH1 membranes, FlashPlate, [125I]-S36057; details: compound at 10 μM; [125I]-S36057
T6 construct: purchased Perkin Elmer Biosignal
T6 sequence (Q99705 whole entry): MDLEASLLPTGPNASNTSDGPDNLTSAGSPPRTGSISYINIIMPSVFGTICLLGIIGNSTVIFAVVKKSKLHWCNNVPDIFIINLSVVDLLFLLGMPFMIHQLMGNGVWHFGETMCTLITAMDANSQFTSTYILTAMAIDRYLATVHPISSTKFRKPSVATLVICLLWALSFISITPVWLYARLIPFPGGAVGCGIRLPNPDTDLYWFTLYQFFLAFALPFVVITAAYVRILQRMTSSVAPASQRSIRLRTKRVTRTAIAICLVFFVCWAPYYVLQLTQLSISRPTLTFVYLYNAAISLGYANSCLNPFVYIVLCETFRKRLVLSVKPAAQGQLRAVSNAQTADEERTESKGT
How it was run: as §2

[2] = biological target: T7, Human neuropeptide Y (NPY-Y1) (Homo sapiens, UniProt P25929); experiment: Radioligand binding, human neuropeptide Y NPY-Y1 membranes, FlashPlate, [125I]-PYY; details: compound at 10 μM; [125I]-PYY
T7 construct: purchased Perkin Elmer Biosignal
T7 sequence (P25929 1-384): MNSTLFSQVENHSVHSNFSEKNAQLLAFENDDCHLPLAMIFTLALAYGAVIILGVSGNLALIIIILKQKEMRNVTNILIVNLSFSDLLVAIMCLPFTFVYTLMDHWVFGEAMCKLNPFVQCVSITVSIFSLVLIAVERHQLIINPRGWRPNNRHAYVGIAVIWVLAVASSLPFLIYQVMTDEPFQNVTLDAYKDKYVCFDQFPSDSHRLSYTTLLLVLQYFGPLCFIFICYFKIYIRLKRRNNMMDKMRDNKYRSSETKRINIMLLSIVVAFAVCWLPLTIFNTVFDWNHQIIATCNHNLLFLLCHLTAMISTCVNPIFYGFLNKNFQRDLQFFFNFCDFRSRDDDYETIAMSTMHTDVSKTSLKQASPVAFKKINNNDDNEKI
How it was run: as §2

Human κ-Opioid (KOP) = biological target: T8, Human κ-Opioid (KOP) (Homo sapiens, UniProt P41145); experiment: Radioligand binding, human κ-opioid (KOP) membranes, filtration, [3H]-Diprenorphine; details: compound at 10 μM; [3H]-Diprenorphine
T8 construct: purchased Perkin Elmer Biosignal
T8 sequence (P41145 whole entry): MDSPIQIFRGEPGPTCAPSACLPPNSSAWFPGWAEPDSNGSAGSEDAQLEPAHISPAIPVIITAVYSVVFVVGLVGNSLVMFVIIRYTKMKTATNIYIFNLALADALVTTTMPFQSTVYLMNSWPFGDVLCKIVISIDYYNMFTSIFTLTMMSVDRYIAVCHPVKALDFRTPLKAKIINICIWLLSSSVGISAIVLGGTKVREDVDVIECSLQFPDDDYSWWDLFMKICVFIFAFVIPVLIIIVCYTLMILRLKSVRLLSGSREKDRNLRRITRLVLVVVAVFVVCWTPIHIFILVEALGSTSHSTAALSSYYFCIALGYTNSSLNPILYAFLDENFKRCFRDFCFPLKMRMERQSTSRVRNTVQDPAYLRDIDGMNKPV
How it was run: as §1

Human δ-opioid (DOP) = biological target: T9, Human δ-opioid (DOP) (Homo sapiens, UniProt P41143); experiment: Radioligand binding, human δ-opioid (DOP) membranes, FlashPlate, [3H]-Bremazocine; details: compound at 10 μM; [3H]-Bremazocine
T9 construct: purchased Perkin Elmer Biosignal
T9 sequence (P41143 whole entry): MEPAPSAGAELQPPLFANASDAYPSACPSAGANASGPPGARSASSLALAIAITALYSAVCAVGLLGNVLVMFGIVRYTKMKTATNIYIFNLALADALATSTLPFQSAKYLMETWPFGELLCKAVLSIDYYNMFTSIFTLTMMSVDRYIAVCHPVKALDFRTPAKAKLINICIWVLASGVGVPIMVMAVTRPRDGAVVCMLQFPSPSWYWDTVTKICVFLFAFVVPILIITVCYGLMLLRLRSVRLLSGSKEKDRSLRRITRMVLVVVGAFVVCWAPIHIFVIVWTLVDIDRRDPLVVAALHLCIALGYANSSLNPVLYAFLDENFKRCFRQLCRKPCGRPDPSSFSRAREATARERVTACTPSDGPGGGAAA
How it was run: as §2

Human μ-opioid (MOP) = biological target: T10, Human μ-opioid (MOP) (Homo sapiens, UniProt P35372); experiment: Radioligand binding, human μ-opioid (MOP) membranes, FlashPlate, [3H]-Naloxone; details: compound at 10 μM; [3H]-Naloxone
T10 construct: purchased Perkin Elmer Biosignal
T10 sequence (P35372 whole entry): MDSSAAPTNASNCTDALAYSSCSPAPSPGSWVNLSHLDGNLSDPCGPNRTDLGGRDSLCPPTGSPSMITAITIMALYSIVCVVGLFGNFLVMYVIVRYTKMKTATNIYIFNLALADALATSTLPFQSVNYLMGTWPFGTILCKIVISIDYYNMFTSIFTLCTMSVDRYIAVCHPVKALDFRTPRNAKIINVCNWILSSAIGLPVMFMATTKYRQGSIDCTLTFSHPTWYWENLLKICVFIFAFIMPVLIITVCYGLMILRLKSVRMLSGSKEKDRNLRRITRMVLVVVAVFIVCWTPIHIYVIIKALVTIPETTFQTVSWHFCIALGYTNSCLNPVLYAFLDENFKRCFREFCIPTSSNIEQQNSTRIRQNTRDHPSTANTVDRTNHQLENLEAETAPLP
How it was run: as §2

Human melanocortin (MC5) = biological target: T11, Human melanocortin (MC5) (Homo sapiens, UniProt P33032); experiment: Radioligand binding, human melanocortin MC5 membranes, FlashPlate, [125I]-NDP-αMSH; details: compound at 10 μM; [125I]-NDP-αMSH
T11 construct: purchased Perkin Elmer Biosignal
T11 sequence (P33032 whole entry): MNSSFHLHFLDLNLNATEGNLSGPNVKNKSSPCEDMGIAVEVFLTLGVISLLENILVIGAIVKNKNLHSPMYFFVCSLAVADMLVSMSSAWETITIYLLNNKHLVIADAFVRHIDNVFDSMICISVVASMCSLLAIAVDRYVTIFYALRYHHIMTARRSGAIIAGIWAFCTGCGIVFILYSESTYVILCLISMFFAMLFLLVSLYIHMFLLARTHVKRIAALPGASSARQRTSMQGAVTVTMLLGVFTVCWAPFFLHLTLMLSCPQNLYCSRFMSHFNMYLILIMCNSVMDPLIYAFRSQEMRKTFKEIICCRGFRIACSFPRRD
How it was run: as §2

T1 sequence (P25103 whole entry): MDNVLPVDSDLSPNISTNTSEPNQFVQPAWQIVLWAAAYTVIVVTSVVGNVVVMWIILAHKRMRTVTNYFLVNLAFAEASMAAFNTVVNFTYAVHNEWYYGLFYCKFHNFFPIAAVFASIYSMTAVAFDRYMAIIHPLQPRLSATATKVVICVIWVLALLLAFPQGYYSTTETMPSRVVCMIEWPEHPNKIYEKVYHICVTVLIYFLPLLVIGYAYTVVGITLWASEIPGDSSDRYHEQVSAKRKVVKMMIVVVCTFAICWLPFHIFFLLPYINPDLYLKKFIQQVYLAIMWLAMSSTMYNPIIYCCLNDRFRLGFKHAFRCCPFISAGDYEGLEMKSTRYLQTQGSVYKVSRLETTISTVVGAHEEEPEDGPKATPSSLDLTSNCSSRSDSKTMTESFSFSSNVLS

SMILES | A8: inhibition of radioligand binding, human neurokinin (NK1) (Human neurokinin (NK1)) | A10: inhibition of radioligand binding, human opioid (ORL1) (Human opioid (ORL1)) | A3: inhibition of radioligand binding, human melanocortin (MC3) (Human Melanocortin (MC3)) | A11: inhibition of radioligand binding, mouse urotensin (mUR2) (Mouse urotensin (mUR2)) | A4: inhibition of radioligand binding, human melanocortin (MC4) (Human Melanocortin (MC4)) | A6: inhibition of radioligand binding, human melanin-concentrating hormone (MCH1) [1] | A9: inhibition of radioligand binding, human neuropeptide Y (NPY-Y1) [2] | A2: inhibition of radioligand binding, human κ-opioid (KOP) (Human κ-Opioid (KOP)) | A1: inhibition of radioligand binding, human δ-opioid (DOP) (Human δ-opioid (DOP)) | A7: inhibition of radioligand binding, human μ-opioid (MOP) (Human μ-opioid (MOP)) | A5: inhibition of radioligand binding, human melanocortin (MC5) (Human melanocortin (MC5))
COC1C(O)C(COCc2ccc3ccccc3c2)OC(OCc2ccc(Cl)cc2)C1NC(=O)C1CCCN(C(=N)N)C1 (stereo not drawn) [compound 348] | + (“+” indicates greater than 50% inhibition at 10 μM) | − (“−” indicates less than 50% inhibition at 10 μM) | − (“−” indicates less than 50% inhibition at 10 μM) | − (“−” indicates less than 50% inhibition at 10 μM) | − (“−” indicates less than 50% inhibition at 10 μM) | − (“−” indicates less than 50% inhibition at 10 μM) | − (“−” indicates less than 50% inhibition at 10 μM) | − (“−” indicates less than 50% inhibition at 10 μM) | − (“−” indicates less than 50% inhibition at 10 μM) | − (“−” indicates less than 50% inhibition at 10 μM) | + (“+” indicates greater than 50% inhibition at 10 μM)
COC1C(O)C(COCc2ccc3ccccc3c2)OC(OCc2ccc(Cl)cc2)C1NC(=O)C1CCN(C(=N)N)CC1 (stereo not drawn) [compound 349] | + (“+” indicates greater than 50% inhibition at 10 μM) | − (“−” indicates less than 50% inhibition at 10 μM) | − (“−” indicates less than 50% inhibition at 10 μM) | − (“−” indicates less than 50% inhibition at 10 μM) | − (“−” indicates less than 50% inhibition at 10 μM) | − (“−” indicates less than 50% inhibition at 10 μM) | − (“−” indicates less than 50% inhibition at 10 μM) | − (“−” indicates less than 50% inhibition at 10 μM) | − (“−” indicates less than 50% inhibition at 10 μM) | − (“−” indicates less than 50% inhibition at 10 μM) | + (“+” indicates greater than 50% inhibition at 10 μM)
COC1C(O)C(COCc2ccc3ccccc3c2)OC(OCc2ccc(Cl)cc2)C1NC(=O)CNC(=N)N (stereo not drawn) [compound 350] | + (“+” indicates greater than 50% inhibition at 10 μM) | − (“−” indicates less than 50% inhibition at 10 μM) | − (“−” indicates less than 50% inhibition at 10 μM) | − (“−” indicates less than 50% inhibition at 10 μM) | − (“−” indicates less than 50% inhibition at 10 μM) | − (“−” indicates less than 50% inhibition at 10 μM) | − (“−” indicates less than 50% inhibition at 10 μM) | − (“−” indicates less than 50% inhibition at 10 μM) | − (“−” indicates less than 50% inhibition at 10 μM) | − (“−” indicates less than 50% inhibition at 10 μM) | + (“+” indicates greater than 50% inhibition at 10 μM)
